US12122778B2, “Activating pyruvate kinase R” (Novo Nordisk Health Care AG, priority 2018, dated 2024)

Key:
PKR(R510Q) = PKR(R510Q) (Homo sapiens, UniProt P30613, R510Q); test: Luminescence Biochemical Assay (Kinase Glo Plus), PKR R510Q mutant; settings: without FBP; for activation at 1.54 µM: 1.54 μM compound, read-out: AC50 LUM KGP woFBP % Fold@1.54 μM mean; for AC50: read-out: AC50 LUM KGP woFBP AC50 μM gmean; for Emax: read-out: AC50 LUM KGP woFBP MAX % FOLD mean
PKR(G332S) = PKR(G332S) (Homo sapiens, UniProt P30613, G332S); test: Luminescence Biochemical Assay (Kinase Glo Plus), PKR G332S mutant; settings: with FBP; for activation at 1.54 µM: 1.54 μM compound, read-out: AC50 LUM KGP FBP % Fold@1.54 μM mean; for AC50: read-out: AC50 LUM KGP FBP AC50 μM gmean (column A); for Emax: read-out: AC50 LUM KGP FBP MAX % FOLD mean
Chain of PKR(G332S) (P30613 whole entry G332S): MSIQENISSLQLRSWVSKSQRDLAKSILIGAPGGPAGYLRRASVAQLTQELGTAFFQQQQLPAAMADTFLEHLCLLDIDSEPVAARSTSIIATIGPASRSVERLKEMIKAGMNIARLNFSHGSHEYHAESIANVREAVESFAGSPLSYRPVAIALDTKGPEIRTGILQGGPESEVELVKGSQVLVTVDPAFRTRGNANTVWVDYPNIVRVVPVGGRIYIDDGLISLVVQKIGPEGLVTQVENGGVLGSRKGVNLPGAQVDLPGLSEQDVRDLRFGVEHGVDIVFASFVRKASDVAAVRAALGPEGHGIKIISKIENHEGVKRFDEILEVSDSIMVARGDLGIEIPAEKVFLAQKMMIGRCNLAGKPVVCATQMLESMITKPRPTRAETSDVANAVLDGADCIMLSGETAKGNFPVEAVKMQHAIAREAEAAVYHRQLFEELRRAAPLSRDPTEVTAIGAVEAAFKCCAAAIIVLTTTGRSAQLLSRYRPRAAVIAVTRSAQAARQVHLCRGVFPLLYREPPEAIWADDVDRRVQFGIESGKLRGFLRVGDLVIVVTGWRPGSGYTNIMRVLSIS

PKR(wt) = PKR(wt) (Homo sapiens, UniProt P30613); test: Luminescence Biochemical Assay (Kinase Glo Plus), wild type PKR; settings: without FBP; for activation at 1.54 µM: 1.54 μM compound, read-out: AC50 LUM KGP woFBP % Fold@1.54 μM mean; for AC50: read-out: AC50 LUM KGP woFBP AC50 μM gmean; for Emax: read-out: AC50 LUM KGP woFBP MAX % FOLD mean
Chain of PKR(wt) (P30613 whole entry): as the sequence (P30613 whole entry G332S) above, with S332G counted along it

Chain of PKR(R510Q) (P30613 whole entry R510Q): as the sequence (P30613 whole entry G332S) above, with S332G, R510Q counted along it

Row | Structure (SMILES) | activation at 1.54 µM (PKR(R510Q)) | AC50 (PKR(R510Q)) | Emax (PKR(R510Q)) | activation at 1.54 µM (PKR(G332S)) | AC50 (PKR(G332S)) | Emax (PKR(G332S)) | activation at 1.54 µM (PKR(wt)) | AC50 (PKR(wt)) | Emax (PKR(wt))
1 | Cc1nc(CC(=O)N2CC3=C(C2)CN(S(=O)(=O)c2ccccn2)C3)cs1 [Example 18-68, 2-(2-Methyl-1,3-thiazol-4-yl)-1-[5-(pyridine-2-sulfonyl)-1H,2H,3H,4H,5H,6H-pyrrolo[3,4-c]pyrrol-2-yl]ethan-1-one] | 75 to 250% | 1 to 40 µM | 75 to 250% | 75 to 250% | 0.1 to 1 µM | 75 to 250% | 75 to 250% | 1 to 40 µM | 250 to 500%
2 | O=C([C@@H]1CCCO1)N1CC2=C(C1)CN(S(=O)(=O)c1ccccn1)C2 [Example 18-69, 2-({5-[(2S)-oxolane-2-carbonyl]-1H,2H,3H,4H,5H,6H-pyrrolo[3,4-c]pyrrol-2-yl}sulfonyl)pyridine] | 75 to 250% | 1 to 40 µM | 75 to 250% | 75 to 250% | 1 to 40 µM | 75 to 250% | 75 to 250% | 1 to 40 µM | 75 to 250%
3 | O=C(Cn1cnnn1)N1CC2=C(C1)CN(S(=O)(=O)c1cccnc1)C2 [Example 18-70, 1-[5-(Pyridine-3-sulfonyl)-1H,2H,3H,4H,5H,6H-pyrrolo[3,4-c]pyrrol-2-yl]-2-(1H-1,2,3,4-tetrazol-1-yl)ethan-1-one] | 75 to 250% | 1 to 40 µM | 75 to 250% | 75 to 250% | 1 to 40 µM | 75 to 250% | 75 to 250% | 1 to 40 µM | 75 to 250%
4 | O=C(Cc1ccc[nH]1)N1CC2=C(C1)CN(S(=O)(=O)c1cccnc1)C2 [Example 18-73, 1-[5-(Pyridine-3-sulfonyl)-1H,2H,3H,4H,5H,6H-pyrrolo[3,4-c]pyrrol-2-yl]-2-(1H-pyrrol-2-yl)ethan-1-one] | 75 to 250% | 1 to 40 µM | 75 to 250% | 75 to 250% | 1 to 40 µM | 75 to 250% | 75 to 250% | 1 to 40 µM | 75 to 250%
5 | CC[C@@H](O)C(=O)N1CC2=C(C1)CN(S(=O)(=O)c1ccc3c(c1)N(C)CCO3)C2 [Example 18-76, (2R)-2-hydroxy-1-{5-[(4-methyl-3,4-dihydro-2H-1,4-benzoxazin-6-yl)sulfonyl]-1H,2H,3H,4H,5H,6H-pyrrolo[3,4-c]pyrrol-2-yl}butan-1-one] | 75 to 250% | 1 to 40 µM | 75 to 250% | 75 to 250% | 1 to 40 µM | 75 to 250% | 75 to 250% | 0.1 to 1 µM | 75 to 250%
6 | O=C(NCc1cccnc1)N1CC2=C(C1)CN(S(=O)(=O)c1ccc3ncsc3c1)C2 [Example 20-56, 5-(1,3-Benzothiazole-6-sulfonyl)-N-(pyridin-3-ylmethyl)-1H,2H,3H,4H,5H,6H-pyrrolo[3,4-c]pyrrole-2-carboxamide] | 75 to 250% | 1 to 40 µM | 250 to 500% | 75 to 250% | 0.1 to 1 µM | 75 to 250% | 75 to 250% | 1 to 40 µM | 250 to 500%

Now from value to molecule:

Row | activation at 1.54 µM (PKR(R510Q)) | AC50 (PKR(R510Q)) | Emax (PKR(R510Q)) | activation at 1.54 µM (PKR(G332S)) | AC50 (PKR(G332S)) | Emax (PKR(G332S)) | activation at 1.54 µM (PKR(wt)) | AC50 (PKR(wt)) | Emax (PKR(wt)) | Structure (SMILES)
7 | 250 to 50000% | ≤ 0.1 µM | 250 to 500% | 75 to 250% | ≤ 0.1 µM | 75 to 250% | 250 to 50000% | ≤ 0.1 µM | 250 to 500% | COc1ccc(CNC(=O)N2CC3=C(C2)CN(S(=O)(=O)c2ccc(OC(F)F)cc2)C3)cc1 [Example 21-10, 5-[4-(Difluoromethoxy)benzenesulfonyl]-N-[(4-methoxyphenyl)methyl]-1H,2H,3H,4H,5H,6H-pyrrolo[3,4-c]pyrrole-2-carboxamide]
8 | 250 to 50000% | ≤ 0.1 µM | 250 to 500% | 75 to 250% | ≤ 0.1 µM | 75 to 250% | 250 to 50000% | ≤ 0.1 µM | 250 to 500% | COc1cccc(CNC(=O)N2CC3=C(C2)CN(S(=O)(=O)c2ccc(OC(F)F)cc2)C3)c1 [Example 21-11, 5-[4-(Difluoromethoxy)benzenesulfonyl]-N-[(3-methoxyphenyl)methyl]-1H,2H,3H,4H,5H,6H-pyrrolo[3,4-c]pyrrole-2-carboxamide]
9 | 250 to 50000% | 0.1 to 1 µM | 250 to 500% | 75 to 250% | ≤ 0.1 µM | 75 to 250% | 250 to 50000% | 0.1 to 1 µM | 250 to 500% | COc1ccccc1CNC(=O)N1CC2=C(C1)CN(S(=O)(=O)c1ccc(OC(F)F)cc1)C2 [Example 21-12, 5-[4-(Difluoromethoxy)benzenesulfonyl]-N-[(2-methoxyphenyl)methyl]-1H,2H,3H,4H,5H,6H-pyrrolo[3,4-c]pyrrole-2-carboxamide]
10 | 250 to 50000% | 0.1 to 1 µM | 250 to 500% | 75 to 250% | ≤ 0.1 µM | 75 to 250% | 250 to 50000% | 0.1 to 1 µM | 250 to 500% | O=C(NCc1ccc(F)cc1)N1CC2=C(C1)CN(S(=O)(=O)c1ccc(OC(F)F)cc1)C2 [Example 21-13, 5-[4-(Difluoromethoxy)benzenesulfonyl]-N-[(4-fluorophenyl)methyl]-1H,2H,3H,4H,5H,6H-pyrrolo[3,4-c]pyrrole-2-carboxamide]
11 | 250 to 50000% | 1 to 40 µM | 250 to 500% | 75 to 250% | 0.1 to 1 µM | 75 to 250% | 250 to 50000% | 0.1 to 1 µM | 250 to 500% | O=C(NCc1cccc(F)c1)N1CC2=C(C1)CN(S(=O)(=O)c1ccc(OC(F)F)cc1)C2 [Example 21-14, 5-[4-(Difluoromethoxy)benzenesulfonyl]-N-[(3-fluorophenyl)methyl]-1H,2H,3H,4H,5H,6H-pyrrolo[3,4-c]pyrrole-2-carboxamide]
12 | 250 to 50000% | ≤ 0.1 µM | 250 to 500% | 75 to 250% | ≤ 0.1 µM | 75 to 250% | 250 to 50000% | ≤ 0.1 µM | 250 to 500% | O=C(NCc1ccccc1F)N1CC2=C(C1)CN(S(=O)(=O)c1ccc(OC(F)F)cc1)C2 [Example 21-15, 5-[4-(Difluoromethoxy)benzenesulfonyl]-N-[(2-fluorophenyl)methyl]-1H,2H,3H,4H,5H,6H-pyrrolo[3,4-c]pyrrole-2-carboxamide]
13 | 250 to 50000% | 0.1 to 1 µM | 250 to 500% | 75 to 250% | ≤ 0.1 µM | 75 to 250% | 250 to 50000% | ≤ 0.1 µM | 250 to 500% | COc1ccc(CNC(=O)N2CC3=C(C2)CN(S(=O)(=O)c2ccc4ncsc4c2)C3)cc1 [Example 21-16, 5-(1,3-Benzothiazole-6-sulfonyl)-N-[(4-methoxyphenyl)methyl]-1H,2H,3H,4H,5H,6H-pyrrolo[3,4-c]pyrrole-2-carboxamide]
14 | 75 to 250% | 1 to 40 µM | 75 to 250% | 75 to 250% | ≤ 0.1 µM | 75 to 250% | 75 to 250% | ≤ 0.1 µM | 75 to 250% | COc1cccc(CNC(=O)N2CC3=C(C2)CN(S(=O)(=O)c2ccc4ncsc4c2)C3)c1 [Example 21-17, 5-(1,3-Benzothiazole-6-sulfonyl)-N-[(3-methoxyphenyl)methyl]-1H,2H,3H,4H,5H,6H-pyrrolo[3,4-c]pyrrole-2-carboxamide]
15 | 250 to 50000% | 0.1 to 1 µM | 250 to 500% | 75 to 250% | ≤ 0.1 µM | 75 to 250% | 250 to 50000% | 0.1 to 1 µM | 250 to 500% | COc1ccccc1CNC(=O)N1CC2=C(C1)CN(S(=O)(=O)c1ccc3ncsc3c1)C2 [Example 21-18, 5-(1,3-Benzothiazole-6-sulfonyl)-N-[(2-methoxyphenyl)methyl]-1H,2H,3H,4H,5H,6H-pyrrolo[3,4-c]pyrrole-2-carboxamide]
16 | 75 to 250% | 0.1 to 1 µM | 250 to 500% | 75 to 250% | 0.1 to 1 µM | 75 to 250% | 75 to 250% | 0.1 to 1 µM | 250 to 500% | O=C(NCc1ccc(F)cc1)N1CC2=C(C1)CN(S(=O)(=O)c1ccc3ncsc3c1)C2 [Example 21-19, 5-(1,3-Benzothiazole-6-sulfonyl)-N-[(4-fluorophenyl)methyl]-1H,2H,3H,4H,5H,6H-pyrrolo[3,4-c]pyrrole-2-carboxamide]
17 | 250 to 50000% | ≤ 0.1 µM | 250 to 500% | 75 to 250% | ≤ 0.1 µM | 75 to 250% | 250 to 50000% | ≤ 0.1 µM | 250 to 500% | O=C(NCc1ccccc1F)N1CC2=C(C1)CN(S(=O)(=O)c1ccc3ncsc3c1)C2 [Example 21-20, 5-(1,3-Benzothiazole-6-sulfonyl)-N-[(2-fluorophenyl)methyl]-1H,2H,3H,4H,5H,6H-pyrrolo[3,4-c]pyrrole-2-carboxamide]
18 | 75 to 250% | 1 to 40 µM | 250 to 500% | 75 to 250% | 0.1 to 1 µM | 75 to 250% | 75 to 250% | 1 to 40 µM | 250 to 500% | O=C(NCc1cccc(F)c1)N1CC2=C(C1)CN(S(=O)(=O)c1ccc3ncsc3c1)C2 [Example 21-36, 5-(1,3-Benzothiazole-6-sulfonyl)-N-[(3-fluorophenyl)methyl]-1H,2H,3H,4H,5H,6H-pyrrolo[3,4-c]pyrrole-2-carboxamide]
